Measured values taken from patent publication US7273710B2, “Method for screening MCH receptor antagonist/agonist” (Takeda Pharmaceutical Company Limited, priority 2000, dated 2007).
Positions of bridges follow the written chain, without caps; N, C: chain ends. No end group written: not given here.

How the values were obtained:
[1] = target: T1, human SLT (Homo sapiens, UniProt Q969V1); assay: Inhibition of forskolin-stimulated cAMP production in human SLT-expressing CHO cells; assay type: cell-based; settings: CHO/hSLT cells, 2 μM forskolin, FIG. 2
T1 construct: expressed in transfected cells; host or cells: membrane fraction of CHO/hSLT cells (CHO dhfr- transfected with pAKKO-hSLT)
T1 sequence (Q969V1 whole entry): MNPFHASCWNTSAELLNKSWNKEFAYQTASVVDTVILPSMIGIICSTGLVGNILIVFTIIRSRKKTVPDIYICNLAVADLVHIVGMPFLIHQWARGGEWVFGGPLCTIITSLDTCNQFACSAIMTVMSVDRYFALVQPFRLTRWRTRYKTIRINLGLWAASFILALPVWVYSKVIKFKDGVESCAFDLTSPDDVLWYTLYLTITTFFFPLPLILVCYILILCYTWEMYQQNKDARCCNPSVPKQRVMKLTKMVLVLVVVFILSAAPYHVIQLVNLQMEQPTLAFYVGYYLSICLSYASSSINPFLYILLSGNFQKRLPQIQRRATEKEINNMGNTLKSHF

[2] = target: T1, human SLT; assay: FLIPR assay of intracellular Ca ion level in human SLT-expressing CHO cells; assay type: cell-based; settings: CHO/hSLT cells, Fluo 3-AM, FIG. 5
[3] = target: T1, human SLT; assay: Release of [3H] arachidonic acid metabolite in human SLT-expressing CHO cells; assay type: cell-based; settings: CHO/hSLT cells, FIG. 6
[4] = target: T1, human SLT; assay: Receptor binding assay with [125I]-labeled MCH (4-19) on cell membrane fraction of human SLT-expressing CHO cells; settings: membrane fractions from CHO/hSLT clones #1, 26, 36, 25° C., 60 minutes, FIG. 3

CSCC[C@@H]1NC(=O)[C@@H](NC(=O)[C@H](CCCNC(=N)N)NC(=O)[C@H](CC(C)C)NC(=O)[C@H](CCSC)NC(=O)[C@H](CC(=O)O)NC(=O)[C@H](Cc2ccccc2)NC(=O)[C@@H](N)CC(=O)O)CSSC[C@@H](C(=O)N[C@@H](Cc2c[nH]c3ccccc23)C(=O)N[C@@H](CCC(N)=O)C(=O)N[C@H](C(=O)O)C(C)C)NC(=O)[C@@H]2CCCN2C(=O)[C@H](CCCNC(=N)N)NC(=O)[C@H](Cc2ccc(O)cc2)NC(=O)[C@H](C(C)C)NC(=O)[C@H](CCCNC(=N)N)NC(=O)CNC(=O)[C@H](CC(C)C)NC1=O [MCH, Asp-Phe-Asp-Met-Leu-Arg-Cys-Met-Leu-Gly-Arg-Val-Tyr-Arg-Pro-Cys-Trp-Gln-V al]
concentration at which the intracellular cAMP was clearly decreased ([1]; 37° C., 30 minutes): 30 pM
inhibition of cAMP production, concentration dependence [1]: decreased in a dose-dependent manner
increase of the intracellular Ca ion level [2]: increases the intracellular Ca ion level in human SLT-expressing CHO cells in a manner dependent on the concentration
activity to induce the release of the arachidonic acid metabolite [3]: in a does-dependent manner

[^125I]-[N-3-(4-hydroxy-3-iodophenyl)propionyl)-Met^4]-MCH (4-19) ({3‑(4-hydroxy-3-(125I)iodophenyl)propionyl}-MLRCMLGRVYRPCWQV; disulfide 4-13) [[^125I]-labeled MCH (4-19)]
specific binding to cell membrane fraction [4]: dependent on the concentration of membrane fraction was observed
